# Where two headings read alike, the source gives them in different places.
# Legend:
# [1] = Log P by HPLC on reversed phase columns (EEC directive 79/831 Annex V.A8); assay type: physicochemical; settings: for chromatographic logP: reversed phase HPLC columns
# Procedure: In the above table, measurement of Log P values was performed according to EEC directive 79/831 Annex V.A8 by HPLC (High Performance Liquid Chromatography) on reversed phase columns with the following methods: • [^a] Log P value is determined by measurement of LC-UV, in an acidic range, with 0.1% formic acid in water and acetonitrile as eluent (linear gradient from 10% acetonitrile to 95% acetonitrile). • [^b] Log P value is determined by measurement of LC-UV, in a neutral range, with 0.001 molar ammonium acetate solution in water and acetonitrile as eluent (linear gradient from 10% acetonitrile to 95% acetonitrile). • [^c] Log P value is determined by measurement of LC-UV, in an acidic range, with 0.1% phosphoric acid and acetonitrile as eluent (linear gradient from 10% acetonitrile to 95% acetonitrile).
# If more than one Log P value is available within the same method, all the values are given and separated by “+”.
# Calibration was done with straight-chain alkan2-ones (with 3 to 16 carbon atoms) with known Log P values (measurement of Log P values using retention times with linear interpolation between successive alkanones). Lambda-max-values were determined using UV-spectra from 200 nm to 400 nm and the peak values of the chromatographic signals.
# [2] = test system: Colletotrichum lindemuthianum; experiment: Colletotrichum lindemuthianum in vitro cell test; assay type: cell-based; settings: 144 h, 20 ppm of active ingredient, 6 days incubation, read-out: efficacy (direct activity, inhibition of fungal growth)
# Procedure: Solvent: DMSO Culture medium: 14.6 g anhydrous D-glucose (VWR), 7.1 g Mycological Peptone (Oxoid), 1.4 g granulated Yeast Extract (Merck), QSP 1 liter Inoculum: spores suspension Fungicides were solubilized in DMSO and the solution used to prepare the required range of concentrations. The final concentration of DMSO used in the assay was ≤1%. A spore suspension of C. lindemuthianum was prepared and diluted to the desired spore density. Fungicides were evaluated for their ability to inhibit spores germination and mycelium growth in liquid culture assay. The compounds were added in the desired concentration to the culture medium with spores. After 6 days incubation, fungi-toxicity of compounds was determined by spectrometric measurement of mycelium growth. Inhibition of fungal growth was determined by comparing the absorbance values in wells containing the fungicides with the absorbance in control wells without fungicides.
# [3] = test system: Xanthomonas campestris pv. campestris; experiment: Xanthomonas campestris pv. campestris in vitro cell test; assay type: cell-based; settings: 20 ppm of active ingredient, 24 h incubation, read-out: efficacy (direct activity, inhibition of bacteria growth)
# Procedure: Solvent: DMSO Culture medium: LB broth medium (Luria Broth Miller) Sigma Inoculum: bacteria suspension Compounds were solubilized in DMSO and the solution used to prepare the required range of concentrations. The final concentration of DMSO used in the assay was ≤1%. Inoculum was prepared from a pre-culture of bacteria grown in liquid medium and diluted to the desired optical density (OD). Compounds were evaluated for their ability to inhibit bacteria growth in liquid culture assay. The compounds were added in the desired concentrations to culture medium containing the bacteria suspension. After 24 h of incubation, the efficacy of compounds was determined by spectrometric measurement of bacteria growth. Inhibition was determined by comparing the absorbance values in wells containing the compounds with the absorbance in control wells without active ingredients.
# Uromyces appendiculatus = experiment: In vivo preventive test on Uromyces appendiculatus (bean rust); settings: Uromyces appendiculatus, 240 h, bean, evaluated 10 days after inoculation, read-out: efficacy; for pest or weed control at 31 ppm: 31 ppm of active ingredient; for pest or weed control at 125 ppm: 125 ppm of active ingredient
# Procedure: (§1) The tested active ingredients were prepared by homogenization in a mixture of acetone/Dimethyl sulfoxide/Tween®, and then diluted with water to obtain the desired active material concentration.
# The young plants of bean were treated by spraying the active ingredient prepared as described above.
# Control plants were treated only with an aqueous solution of acetone/Dimethyl sulfoxide/Tween®.
# After 72 hours, the plants were contaminated by spraying the leaves with an aqueous suspension of Uromyces appendiculatus spores. The contaminated bean plants were incubated for 24 hours at 20° C. and at 100% relative humidity and then for 9 days at 20° C. and at 70-80% relative humidity.
# The test was evaluated 10 days after the inoculation. 0% means an efficacy which corresponds to that of the control plants while an efficacy of 100% means that no disease was observed.
# Compound CMP1 was tested in an in vivo preventive test on Uromyces appendiculatus (bean rust) in the same conditions as described in Example G.
# [4] = test system: salicylate responsive promoter sequence of the PR1 (pathogenesis-related protein I) gene (AT2G14610); experiment: Induction of defense gene expression in Arabidopsis thaliana (PR1 promoter-GFP reporter plants); assay type: in vivo; settings: 72 h, 3rd day after spraying, mock treated leaves set as 1.00, read-out: relative fluorescence value; for fold induction at 75 ppm: 75 ppm of compound
# Procedure: Arabidopsis thaliana reporter plants containing the coding sequence of a green fluorescent protein (GFP) linked to the salicylate responsive promoter sequence of the PR1 (pathogenesis-related protein I) gene (AT2G14610) were grown for five days and then sprayed with compounds. On the 3rd day after spraying, plant fluorescence was assessed with a MacroFluo instrument from Leica Microsystems (Wetzlar, Germany). Fluorescences were quantified with the Meta-Morph Microscopy Automation & Image Analysis Software (Molecular Devices, Sunnyvale, Calif., United States).
# Background fluorescence in mock treated leaves was set as 1.00.
# Peronospora parasitica = experiment: In vivo preventive test on Peronospora parasitica (crucifer downy mildew); settings: Hyaloperonospora parasitica, 120 h; 125 ppm of active ingredient; cabbage; evaluated 5 days after inoculation; read-out: efficacy
# Procedure: as §1
# (§2) The young plants of cabbage were treated by spraying the active ingredient prepared as described above. Control plants were treated only with an aqueous solution of acetone/Dimethyl sulfoxide/Tween®.
# After 72 hours, the plants were contaminated by spraying the leaves with an aqueous suspension of Peronospora parasitica spores. The contaminated cabbage plants were incubated for 5 days at 20° C. and at 100% relative humidity.
# The test was evaluated 5 days after the inoculation. 0% means an efficacy which corresponds to that of the control plants while an efficacy of 100% means that no disease was observed.
# [5] = test system: Xanthomonas campestris pv. campestris; experiment: In vivo preventive test on Xanthomonas campestris pv. campestris (black rot on cabbage); settings: Xanthomonas campestris; 31 ppm of active ingredient; cabbage; evaluated 8 or 10 days after inoculation; read-out: efficacy
# Procedure: as §1, §2
# After 72 hours, the plants were contaminated by spraying the leaves with an aqueous bacteria suspension of Xanthomonas campestris pv. campestris. The contaminated cabbage plants were incubated for 8 or 10 days at 27° C. at 95% relative humidity.
# The test was evaluated 8 or 10 days after the inoculation. 0% means an efficacy which corresponds to that of the control plants while an efficacy of 100% means that no disease was observed.
# Compound CMP1 was tested in an in vivo preventive test on Xanthomonas campestris pv. campestris (black rot on cabbage) in the same conditions as described in Example F.
# [6] = method [a]: LC-UV, acidic range, 0.1% formic acid in water and acetonitrile as eluent
# [7] = given in preparation examples, method not marked
Compound,"chromatographic logP [1, 6]",inhibition at 20 ppm [2] [%],inhibition at 20 ppm [3] [%],pest or weed control at 31 ppm (Uromyces appendiculatus) [%],fold induction at 300 ppm [4],pest or weed control at 125 ppm (Peronospora parasitica) [%],pest or weed control at 125 ppm (Uromyces appendiculatus) [%],other results
CC1(C)N=C(c2sc(Cl)c(Cl)c2Br)OC1=O [I.23],4.33,≤ 30,≤ 30,70 to 79,,,,
O=C1OC(c2sc(Br)c(Br)c2Cl)=NC12CCC2 [I.17],4.51,≤ 30,≤ 30,,> 2,90 to 100,90 to 100,fold induction at 75 ppm [4]: > 2
O=C1SC(c2sc(Cl)c(Cl)c2Cl)=NC12CC2 [I.01],5.61,,≤ 30,,> 2,80 to 89,,pest or weed control at 31 ppm [5]: 80 to 89%; pest or weed control at 500 ppm (Uromyces appendiculatus; 500 ppm of active ingredient): 90 to 100%
"O=C(O)c1ccccc1O [Salicylic acid, reference compound]",,,,,2.7,,,
CC1(C)N=C(c2sc(Cl)c(Br)c2Br)OC1=O [I.18],,,,,,,,"LogP [1, 6]: 4.32^[a]"
CC1(C)N=C(c2sc(Cl)c(Br)c2Cl)OC1=O [I.21],4.26,≤ 30,≤ 30,90 to 100,,90 to 100,90 to 100,
Cc1c(C(=O)NC2(C(=O)O)CC2)sc(C#N)c1Br [1-{[(4-bromo-5-cyano-3-methyl-2-thienyl)carbonyl]amino}cyclopropanecarboxylic acid],,,,,,,,"Log P [1, 7]: 1.84; chromatographic logP [1, 7]: 1.88"
"COC(=O)C1(NC(=S)c2sc(Br)c(Br)c2F)CC1 [methyl 1-{[(4,5-dibromo-3-fluoro-2-thienyl)carbonothioyl]amino}cyclopropanecarboxylate]",,,,,,,,"chromatographic logP [1, 7]: 3.91"
Cc1c(C2=NC3(CC3)C(=O)S2)sc(Cl)c1Cl [I.15],,,,,,,,LogP [1]: 5.53^[a]
Cc1c(C2=NC3(CCC3)C(=O)O2)sc(Cl)c1Cl [I.19],4.75,≤ 30,≤ 30,90 to 100,,90 to 100,90 to 100,
CC1(C)N=C(c2sc(Br)c(Br)c2F)OC1=O [I.16],3.77,≤ 30,≤ 30,90 to 100,> 2,90 to 100,90 to 100,fold induction at 75 ppm [4]: > 2
